For this assay, the system named is Endogenous Huntingtin Protein. In words: Endogenous Huntingtin Protein Assay (ELISA-based Meso Scale Discovery electrochemiluminescence). In kind it is cell-based. The note with it: MSD electrochemiluminescence, Table 1. In short, it runs like this:
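Huntingtin was captured overnight at 4 °C on plates coated with 1 μg/mL MW1 (polyQ-expanded) or MAB2166 antibody and BSA-blocked. Detection used a rabbit monoclonal and then a SULFO-TAG goat anti-rabbit antibody (0.25 μg/mL, 1 h each, room temperature). Signal was read by electrochemiluminescence.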
`CN(c1ncc(-c2ccc(-n3cc(O)cn3)cc2O)nn1)C1CC(C)(C)NC(C)(C)C1` [Cpd 90, 1-(3-hydroxy-4-{3-[methyl(2,2,6,6-tetramethylpiperidin-4-yl)amino]-1,2,4-triazin-6-yl}phenyl)-1H-pyrazol-4-ol] came in with an IC50 of at most 100 nM.
Turning to `Oc1cc(-c2cn[nH]c2)ccc1-c1cnc(N2CCC3(CNCCO3)C2)nn1` (centres unmarked) [Cpd 353, 2-[3-(6-oxa-2,9-diazaspiro[4.5]decan-2-yl)-1,2,4-triazin-6-yl]-5-(1H-pyrazol-4-yl)phenol], the half-inhibitory concentration (IC50) was 1000 to 3000 nM.
Compound `CC(C)(C)NC1CCN(c2ncc(-c3ccc(-c4ccn5nncc5c4)cc3O)nn2)C1` (stereo not drawn) [Cpd 207, 2-{3-[3-(tert-butylamino)pyrrolidin-l-yl]-1,2,4-triazin-6-yl}-5-([1,2,3]triazolo[1,5-a]pyridin-5-yl)phenol] registered a 50% inhibitory concentration (IC50) of 1000 to 3000 nM.
`CC1(C)CC(Oc2ncc(-c3ccc(-c4cn[nH]c4)cc3O)nn2)CC(C)(C)N1` [Cpd 11, 5-(1H-pyrazol-4-yl)-2-{3-[(2,2,6,6-tetramethylpiperidin-4-yl)oxy]-1,2,4-triazin-6-yl}phenol] showed an IC50 of at most 100 nM.
As to `CN(c1ncc(-c2ccc(-c3ccn4nnnc4c3)cc2O)nn1)C1CC(C)(C)NC(C)(C)C1` [Cpd 155, 2-{3-[methyl(2,2,6,6-tetramethylpiperidin-4-yl)amino]-1,2,4-triazin-6-yl}-5-(tetrazolo[1,5-a]pyridin-7-yl)phenol], the IC50 is at most 100 nM.
In the case of `Oc1cc(-c2cn[nH]c2)ccc1-c1cnc(N2CC[C@H](NC3CCC3)C2)nn1` [Cpd 400, 2-{3-[(3S)-3-(cyclobutylamino)pyrrolidin-1-yl]-1,2,4-triazin-6-yl}-5-(1H-pyrazol-4-yl)phenol], the IC50 was at most 100 nM.
`CNC1CCN(c2ncc(-c3ccc(-n4cc(F)cn4)cc3O)nn2)C1` (centres unmarked) [Cpd 219, 5-(4-fluoro-1H-pyrazol-1-yl)-2-{3-[3-(methylamino)pyrrolidin-1-yl]-1,2,4-triazin-6-yl}phenol] registered an IC50 of 100 to 500 nM.
Under `CN(c1ncc(-c2ccc(-c3ccnc(Cl)n3)cc2O)nn1)C1CC(C)(C)NC(C)(C)C1` [Cpd 130, 5-(2-chloropyrimidin-4-yl)-2-{3-[methyl(2,2,6,6-tetramethylpiperidin-4-yl)amino]-1,2,4-triazin-6-yl}phenol] stands 100 to 500 nM; under `CN1CC[C@@H]2CN(c3ncc(-c4ccc(-c5cn[nH]c5)cc4O)nn3)C[C@@H]21` [Cpd 117, 2-{3-[(3aR,6aR)-1-methylhexahydropyrrolo[3,4-b]pyrrol-5(1H)-yl]-1,2,4-triazin-6-yl}-5-(1H-pyrazol-4-yl)phenol], 100 to 500 nM.
Under `[2H]C([2H])([2H])n1cc(-c2ccc(-c3cnc(N(C)C4CC(C)(C)NC(C)(C)C4)nn3)c(O)c2)cn1` [Cpd 14, 5-[1-(^2H3)methyl-1H-pyrazol-4-yl]-2-{3-[methyl(2,2,6,6-tetramethylpiperidin-4-yl)amino]-1,2,4-triazin-6-yl}phenol] stands at most 100 nM; under `CNC1CCN(c2ncc(-c3ccc(-n4ccnc4)cc3O)nn2)C1` (centres unmarked) [Cpd 220, 5-(1H-imidazol-1-yl)-2-{3-[3-(methylamino)pyrrolidin-1-yl]-1,2,4-triazin-6-yl}phenol], above 500 nM.
Under `CC(C)(C)NCC1CCN(c2ncc(-c3ccc(-c4cn[nH]c4)cc3O)nn2)C1` (centres unmarked) [Cpd 390, 2-(3-{3-[(tert-butylamino)methyl]pyrrolidin-1-yl}-1,2,4-triazin-6-yl)-5-(1H-pyrazol-4-yl)phenol] stands at most 100 nM; under `CC(C)N[C@@H]1CCN(c2ncc(-c3ccc(-c4cn[nH]c4)cc3O)nn2)C1` [Cpd 348, 2-(3-{(3R)-3-[(propan-2-yl)amino]pyrrolidin-l-yl}-1,2,4-triazin-6-yl)-5-(1H-pyrazol-4-yl)phenol], at most 100 nM.
As to `CNc1cc(-c2ccc(-c3cnc(N4CCC(NC)C4)nn3)c(O)c2)ncn1` (centres unmarked) [Cpd 380, 5-[6-(methylamino)pyrimidin-4-yl]-2-{3-[3-(methylamino)pyrrolidin-1-yl]-1,2,4-triazin-6-yl}phenol], the IC50 was at most 100 nM.

Source of the values: patent US11780839B2, “Compounds for treating Huntington's disease” (PTC THERAPEUTICS, INC., priority 2018, dated 2023).
